Source: patent publication US6355799B1, “Substituted benzene compounds, process for their preparation, and herbicidal and defoliant compositions containing them” (ISK Americas Incorporated, priority 1997, dated 2002)

What was measured:
Assay type in all cases: in vivo
[1] = test system: velvetleaf (Abutilon theophrasti, ABUTH); test: Post-emerge test, greenhouse herbicide activity screening; conditions: post-emerge, 14 days after application, rating scale 0-100
How it was run: (§1)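 Plants grown in 10 cm pots of sandy loam mix received acetone-dissolved compounds through a moving flat-fan nozzle. Doses ranged from 15 to 1000 g ai/ha. Pre-emerge pots were seeded one day earlier, post-emerge pots 8–21 days earlier. Fourteen days on, each pot was graded 0–100 for damage.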

[2] = test system: redroot pigweed (Amaranthus retroflexus, AMARE); test: as above; conditions: post-emerge, 14 days after application
How it was run: as §1

[3] = test system: barnyardgrass (Echinochloa crus-galli, ECHCG); test: as above; conditions: post-emerge, 14 days after application, rating scale 0-100
How it was run: as §1

[4] = test system: lambsquarters (Chenopodium album, CHEAL); test: as above; conditions: post-emerge, 14 days after application, rating scale 0-100
How it was run: as §1

[5] = test system: sicklepod (Cassia obtusifolia, CASOB); test: as above; conditions: post-emerge, 14 days after application, rating scale 0-100
How it was run: as §1

[6] = test system: ivyleaf morningglory (Ipomoea hederacea, IPOHE); test: as above; conditions: post-emerge, 14 days after application, rating scale 0-100
How it was run: as §1

[7] = test system: large crabgrass (Digitaria sanguinalis, DIGSA); test: as above; conditions: post-emerge, 14 days after application, rating scale 0-100
How it was run: as §1

[8] = test system: johnsongrass (Sorghum halepense, SORHA); test: as above; conditions: post-emerge, 14 days after application, rating scale 0-100
How it was run: as §1

[9] = test system: green foxtail (Setaria viridis, SETVI); test: as above; conditions: post-emerge, 14 days after application, rating scale 0-100
How it was run: as §1

[10] = test system: field corn (Zea mays L., var. Dekalb 535, CORN); test: Post-emerge test, crop safety; conditions: post-emerge, 14 days after application, rating scale 0-100
How it was run: (§2)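 Rating: 0–100 visual injury, 14 DAA. Application: acetone, 187 l/ha, 15–1000 g ai/ha, flat-fan track sprayer with nozzle 40–45 cm above soil or canopy. Post-emerge runs used 0.25% v/v surfactant on 2–3 leaf plants.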

[11] = test system: upland rice (Oryza sp., var. Tebonnet, RICE); test: Post-emerge test, crop safety; conditions: post-emerge, 14 days after application, rating scale 0-100
How it was run: as §2

[12] = test system: velvetleaf (Abutilon theophrasti, ABUTH); test: Pre-emerge test, greenhouse herbicide activity screening; conditions: phytotoxicity rating 0-100, 14 days after application
How it was run: (§3)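 Compounds in acetone were track-sprayed at 15–1000 g ai/ha: pre-emergence onto soil sown the previous day, then top-watered to incorporate and later bottom-watered; post-emergence onto 2–3 leaf plants with 0.25% v/v surfactant, bottom-watered only. Ratings on a 0–100 phytotoxicity scale were taken at day 14.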

[13] = test system: barnyardgrass (Echinochloa crus-galli, ECHCG); test: as above; conditions: phytotoxicity rating 0-100, 14 days after application
How it was run: as §3

[14] = test system: lambsquarters (Chenopodium album, CHEAL); test: as above; conditions: phytotoxicity rating 0-100, 14 days after application
How it was run: as §3

[15] = test system: sicklepod (Cassia obtusifolia, CASOB); test: as above; conditions: phytotoxicity rating 0-100, 14 days after application
How it was run: as §3

[16] = test system: ivyleaf morningglory (Ipomoea hederacea, IPOHE); test: as above; conditions: phytotoxicity rating 0-100, 14 days after application
How it was run: as §3

[17] = test system: large crabgrass (Digitaria sanguinalis, DIGSA); test: as above; conditions: phytotoxicity rating 0-100, 14 days after application
How it was run: as §3

[18] = test system: johnsongrass (Sorghum halepense, SORHA); test: as above; conditions: phytotoxicity rating 0-100, 14 days after application
How it was run: as §3

[19] = test system: green foxtail (Setaria viridis, SETVI); test: as above; conditions: phytotoxicity rating 0-100, 14 days after application
How it was run: as §3

[20] = test system: field corn (Zea mays L., var. Dekalb 535, CORN); test: Pre-emerge test, crop safety; conditions: crop damage rating 0-100, 14 days after application
How it was run: (§4)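 Visual ratings on a 0-100 scale (0 no damage, 100 all plants dead) were taken at 14 days after treatment. Rates of 15-1000 g ai/ha in acetone, 187 l/ha, were sprayed onto soil one day after planting (pre-emerge) or onto 2-3 leaf plants with 0.25% v/v surfactant (post-emerge).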

[21] = test system: upland rice (Oryza sp., var. Tebonnet, RICE); test: Pre-emerge test, crop safety; conditions: crop damage rating 0-100, 14 days after application
How it was run: as §4

[22] = test system: redroot pigweed (Amaranthus retroflexus, AMARE); test: Pre-emerge test, greenhouse herbicide activity screening; conditions: phytotoxicity rating 0-100, 14 days after application
How it was run: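 Herbicidal damage is scored 0 (none) to 100 (complete plant death) two weeks after a simulated field spray. Rates span 15–1000 g ai/ha, delivered in acetone at 187 l/ha. For post-emergence treatments, plants have 2–3 leaves and the spray carries 0.25% v/v non-ionic surfactant.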

## COc1c(Cl)cc(F)c(-n2c(=O)cc(C(F)(F)F)n(C)c2=O)c1NC(=O)OCc1ccc(F)cc1 [4-7]
[1]; 63 g ai/ha
  phytotoxicity rating ABUTH: 100
[1]; 250 g ai/ha
  phytotoxicity rating ABUTH: 100
[2]; 63 g ai/ha, rating scale 0-100 (0 no damage, 100 complete death)
  phytotoxicity rating AMARE: 100
[2]; 250 g ai/ha, rating scale 0-100
  phytotoxicity rating AMARE: 100
[3]; 63 g ai/ha
  phytotoxicity rating ECHCG: 50
[3]; 250 g ai/ha
  phytotoxicity rating ECHCG: 100
[4]; 63 g ai/ha
  phytotoxicity rating CHEAL: 100
[4]; 250 g ai/ha
  phytotoxicity rating CHEAL: 100
[5]; 63 g ai/ha
  phytotoxicity rating CASOB: 100
[5]; 250 g ai/ha
  phytotoxicity rating CASOB: 100
[6]; 63 g ai/ha
  phytotoxicity rating IPOHE: 100
[6]; 250 g ai/ha
  phytotoxicity rating IPOHE: 100
[7]; 63 g ai/ha
  phytotoxicity rating DIGSA: 40
[7]; 250 g ai/ha
  phytotoxicity rating DIGSA: 90
[8]; 63 g ai/ha
  phytotoxicity rating SORHA: 90
[8]; 250 g ai/ha
  phytotoxicity rating SORHA: 90
[9]; 63 g ai/ha
  phytotoxicity rating SETVI: 70
[9]; 250 g ai/ha
  phytotoxicity rating SETVI: 100
[10]; 63 g ai/ha
  phytotoxicity rating CORN (crop damage): 90
[10]; 250 g ai/ha
  phytotoxicity rating CORN (crop damage): 100
[11]; 63 g ai/ha
  phytotoxicity rating RICE (crop damage): 65
[11]; 250 g ai/ha
  phytotoxicity rating RICE (crop damage): 90
[12]; 63 g ai/ha
  Pre-emerge Herbicidal Activity ABUTH: 100
[12]; 250 g ai/ha
  Pre-emerge Herbicidal Activity ABUTH: 100
[13]; 63 g ai/ha
  Pre-emerge Herbicidal Activity ECHCG: 70
[13]; 250 g ai/ha
  Pre-emerge Herbicidal Activity ECHCG: 90
[14]; 63 g ai/ha
  Pre-emerge Herbicidal Activity CHEAL: 100
[14]; 250 g ai/ha
  Pre-emerge Herbicidal Activity CHEAL: 100
[15]; 63 g ai/ha
  Pre-emerge Herbicidal Activity CASOB: 70
[15]; 250 g ai/ha
  Pre-emerge Herbicidal Activity CASOB: 100
[16]; 63 g ai/ha
  Pre-emerge Herbicidal Activity IPOHE: 80
[16]; 250 g ai/ha
  Pre-emerge Herbicidal Activity IPOHE: 100
[17]; 63 g ai/ha
  Pre-emerge Herbicidal Activity DIGSA: 100
[17]; 250 g ai/ha
  Pre-emerge Herbicidal Activity DIGSA: 100
[18]; 63 g ai/ha
  Pre-emerge Herbicidal Activity SORHA: 80
[18]; 250 g ai/ha
  Pre-emerge Herbicidal Activity SORHA: 95
[19]; 63 g ai/ha
  Pre-emerge Herbicidal Activity SETVI: 100
[19]; 250 g ai/ha
  Pre-emerge Herbicidal Activity SETVI: 100
[20]; 63 g ai/ha
  Pre-emerge Herbicidal Activity CORN: 60
[20]; 250 g ai/ha
  Pre-emerge Herbicidal Activity CORN: 95
[21]; 63 g ai/ha
  Pre-emerge Herbicidal Activity RICE: 70
[21]; 250 g ai/ha
  Pre-emerge Herbicidal Activity RICE: 100
[22]; 63 g ai/ha
  Pre-emerge Herbicidal Activity AMARE: 100
[22]; 250 g ai/ha
  Pre-emerge Herbicidal Activity AMARE: 100
